Where two headings read alike, the source gives them in different places.
How the values were obtained:
HepG2 cells [1] = assay: Intracellular ATP content (cell viability) assay; type: cell-based, human; settings: Homo sapiens, HepG2, 40 h treatment, mean±SD of three experiments
[2] = system: Caenorhabditis elegans strain PE255; assay: In vivo C. elegans ATP status assay
[3] = system: isolated rat liver mitochondria; assay: Oxygen consumption, Clark-type oxygen electrode; type: biochemical; settings: for I-ADP, % of control (O2 consumption rate): glutamate/malate driven state 3 respiration; for I-ADP, % of control (O2 consumption rate) / I-sub, % of control (O2 consumption rate) / II-ADP, % of control (O2 consumption rate) / II-sub, % of control (O2 consumption rate): isolated rat liver mitochondria; for I-sub, % of control (O2 consumption rate): glutamate/malate driven state 4 respiration; for II-ADP, % of control (O2 consumption rate): succinate-driven state 3 respiration; for II-sub, % of control (O2 consumption rate): succinate-driven state 4 respiration
[4] = system: p53 (p53-bla HCT-116 cells); assay: p53 β-lactamase reporter gene assay; type: cell-based, human; settings: Homo sapiens; 16 h incubation; mean±SD of three experiments
HepG2 cells [5] = assay: cells; settings: Homo sapiens
rat primary hepatocytes = assay: MMP assay in rat primary hepatocytes; settings: for IC50: Rattus norvegicus, Hepatocyte
HepG2 cells [6] = settings: cited from earlier work
hNSC = assay: MMP assay in human neural stem cells (hNSC); type: cell-based; settings: Homo sapiens, Neural stem cell; 1 h treatment; fresh re-sourced stocks; mean±SD of three experiments; read-out: hNSC IC50 (MMP)
[7] = system: HeLa cells expressing YFP-Parkin; assay: Parkin translocation assay; type: cell-based, human; settings: HeLa cells stably expressing YFP-Parkin; treated for 2 h
[8] = system: Caenorhabditis elegans (Bristol N2); assay: C. elegans larval development and growth assay
HepG2 cells [9] = assay: ROS-Glo hydrogen peroxide (ROS) assay; type: cell-based, human; settings: Homo sapiens, HepG2; 2 h treatment; mean±SD of three experiments; read-out: ROS (HepG2) EC50
[10] = system: Nrf2/ARE (ARE-bla HepG2 cells); assay: ARE β-lactamase reporter gene assay; type: cell-based, human; settings: Homo sapiens, HepG2; 16 h incubation; mean±SD of three experiments; read-out: ARE (HepG2) EC50

For `Cc1cc(O)c2c(c1)C(=O)c1cc(O)cc(O)c1C2=O` [Emodin], the IC50 (HepG2 cells [1]; 5 mM glucose, read-out: ATP (HepG2, glucose) IC50) was 43 ± 4.95 µM, the IC50 (HepG2 cells [1]; 10 mM galactose, read-out: ATP (HepG2, galactose) IC50) was 39.7 ± 2.69 µM and the “LUM: mean difference in luminescence (ATP content) relative to plate controls” value ([2]; 0.5 µM) was 0.08724. For the same compound, the “LUM: mean difference in luminescence (ATP content) relative to plate controls” value ([2]; 1 µM) was 0.09663, the “LUM: mean difference in luminescence (ATP content) relative to plate controls” value ([2]; 5 µM) was 0.2419 and the “LUM: mean difference in luminescence (ATP content) relative to plate controls” value ([2]; 10 µM) was 0.4641. The “LUM: mean difference in luminescence (ATP content) relative to plate controls” value ([2]; 25 µM) was 0.5201, the “LUM: mean difference in luminescence (ATP content) relative to plate controls” value ([2]; 50 µM) was 0.576 and the “LUM: mean difference in luminescence (ATP content) relative to plate controls” value ([2]; 75 µM) was 0.5532. For the same compound, the “LUM: mean difference in luminescence (ATP content) relative to plate controls” value ([2]; 100 µM) was 0.7699, the “effect on ATP content (in words)” value ([2]; 0.5–100μM, 24 h exposure) was “statistically significant decreases in ATP content” and the minimal effective concentration ([2]; Caenorhabditis elegans, read-out: LEC LUM: lowest effect concentration for luminescence, a measure of nematode ATP content) was 25 µM. For the same compound, the “I-ADP, % of control (O2 consumption rate)” value ([3]; 0.16 µM) was 93 (34.5) % of control, the “I-sub, % of control (O2 consumption rate)” value ([3]; 0.16 µM) was 102 (11.0) % of control and the “II-ADP, % of control (O2 consumption rate)” value (“II-ADP, % of control” for short) ([3]; 0.16 µM) was 94 (59.1) % of control. For the same compound, the “II-sub, % of control (O2 consumption rate)” value (shortened to “II-sub, % of control”) ([3]; 0.16 µM) was 110 (20.4) % of control, the “I-ADP, % of control (O2 consumption rate)” value ([3]; 0.8 µM) was 98 (36.6) % of control and the “I-sub, % of control (O2 consumption rate)” value ([3]; 0.8 µM) was 120 (13.0) % of control. The “II-ADP, % of control” value ([3]; 0.8 µM) was 94 (59.4) % of control, the “II-sub, % of control” value ([3]; 0.8 µM) was 114 (21.1) % of control and the “I-ADP, % of control (O2 consumption rate)” value ([3]; 4 µM) was 110 (41.0) % of control. For the same compound, the “I-sub, % of control (O2 consumption rate)” value ([3]; 4 µM) was 232 (25.1) % of control, the “II-ADP, % of control” value ([3]; 4 µM) was 84 (53.2) % of control and the “II-sub, % of control” value ([3]; 4 µM) was 144 (26.8) % of control. The “I-ADP, % of control (O2 consumption rate)” value ([3]; 20 µM) was 144 (53.6) % of control, the “I-sub, % of control (O2 consumption rate)” value ([3]; 20 µM) was 540 (58.3) % of control and the “II-ADP, % of control” value ([3]; 20 µM) was 81 (51.3) % of control. The “II-sub, % of control” value ([3]; 20 µM) was 198 (36.7) % of control, the “I-ADP, % of control (O2 consumption rate)” value ([3]; 100 µM) was 59 (30.1) % of control and the “I-sub, % of control (O2 consumption rate)” value ([3]; 100 µM) was 165 (35.4) % of control. The “II-ADP, % of control” value ([3]; 100 µM) was 33 (19.6) % of control, the “II-sub, % of control” value ([3]; 100 µM) was 67 (23.4) % of control and the “Potential Mechanism” value ([3]; mitochondrial respiration in isolated rat liver mitochondria, Clark type oxygen electrode, over tested concentrations) was “Uncoupler at low concentrations (4-20 µM), and Uncoupler + inhibitor at high concentrations (100 µM)”. It also gave an EC50 [4] of 14.9 ± 6.5 µM, an IC50 (HepG2 cells [5]; HepG2, 1 h, read-out: HepG2 IC50 Galactose (MMP)) of 8 ± 1.44 µM and an IC50 (HepG2 cells [5]; HepG2, 1 h, read-out: HepG2 IC50 Glucose (MMP)) of 6.14 ± 1.29 µM. The IC50 (HepG2 cells [5]; HepG2, read-out: MMP assays IC50 (µM) HepG2) was 2.51 µM, the Emax (HepG2 cells [5]; HepG2, read-out: MMP assays efficacy (%) HepG2) was 104% and the “Rat hepatocytes (efficacy) (MMP)” value (rat primary hepatocytes; % of positive control, mean±SD of three experiments) was −106±9.55%. For the same compound, the IC50 (rat primary hepatocytes; 1 h, read-out: Rat hepatocytes IC50 (MMP)) was 15.8 ± 1.07 µM, the IC50 (rat primary hepatocytes; read-out: MMP assays IC50 (µM) Rat Hepatocytes) was 6.28 ± 4.57 µM and the “MMP assays efficacy (%) Rat Hepatocytes” value (rat primary hepatocytes; rat hepatocytes, mean ± SD of three experiments) was -101±17%. For the same compound, the “MMP assays efficacy (%) qHTS-HepG2” value (HepG2 cells [6]) was -97±5%, the IC50 (HepG2 cells [6]; read-out: MMP assays IC50 (µM) qHTS-HepG2) was 1.33 ± 0.78 µM and the IC50 (hNSC) was 1.09 ± 0.56 µM. For the same compound, the Parkin recruitment [7] was “Active”, the “EXT: mean difference in nematode size relative to plate controls” value ([8]; 0.5 µM) was 0.07129 and the “EXT: mean difference in nematode size relative to plate controls” value ([8]; 1 µM) was 0.003832. The “EXT: mean difference in nematode size relative to plate controls” value ([8]; 5 µM) was -0.0304, the “EXT: mean difference in nematode size relative to plate controls” value ([8]; 10 µM) was 0.01596 and the “EXT: mean difference in nematode size relative to plate controls” value ([8]; 25 µM) was 0.07038. For the same compound, the “EXT: mean difference in nematode size relative to plate controls” value ([8]; 50 µM) was 0.04376, the “EXT: mean difference in nematode size relative to plate controls” value ([8]; 100 µM) was -0.01346 and the “effect on larval growth (in words)” value ([8]; 0.5–100μM, 48 h exposure) was “did not affect growth”. For the same compound, the EC50 (HepG2 cells [9]) was 5.24 ± 1.72 µM and the EC50 [10] was 10.5 ± 1.45 µM.
